Patent publication US7435847B2, “Preparation of solid ammonium glyphosate using organic solvent in extraction” (priority 2002, dated 2008)

Experiments:
[1] = 25° C.; cited from earlier work
[2] = saturation concentrations of ammonium glyphosate in different aqueous methanol solutions; assay type: physicochemical; settings: 30° C.
From the text: The amount of gaseous ammonia introduced is 1.01-1.5 times by mole as that of glyphosate added. When the ammonia is not enough, the reaction will not be carried out completely to cause the product having relatively more glyphosate, and thus a part of the water-soluble solid ammonium glyphosate may not be dissolved due to very low the solubility of glyphosate in water. If the ammonia is introduced in excess, relatively more free ammonia will remain in the system, thereby the ammonia will escape in subsequent processes to result in the environmental pollution. A relatively simple method for judging the end point of the reaction is to measure the pH of the reaction system. The inventor believes that the pH should be kept at 5-8. The solubility of ammonium glyphosate varies with the concentration of the aqueous methanol solution, the higher the concentration of aqueous methanol solution is, the lower the solubility of ammonium glyphosate is. The saturation concentrations of ammonium glyphosate in different concentrations of the aqueous methanol solution at 30° C. are listed in Table 1.

[3] = concentration of aqueous solutions of ammonium glyphosate salt at room temperature; assay type: physicochemical; settings: water
From the text: Wherein m is a positive integer from 1 to 3, the ammonium cation may link to the hydroxyl which is bonded with a carbonyl or a phosphoryl. As for the single molecule, m equals 1-3. The generally used ammonium glyphosate salt is a mono-ammonium salt, namely, m equals 1. However, it may not be deemed simply that the ammonium glyphosate salt obtained in practical production has m just equal to a positive integer, but a value in the range of 0.8-1.3. These substances have very high solubility in water and the concentration of their aqueous solutions may be more than 20% at room temperature. However, they have very low solubility in such organic solvents that are completely miscible with any proportion of water or have a relatively high solubility in water. Thus, after the reaction is ended, such organic solvent(s) is(are) added to the reaction solution to form a homogeneous solution with water in the system, thereby substantially decreasing the solubility of the ammonium glyphosate salt therein and crystallizing the salt out. Such solvents may include, or may be, alcohols and acetals, etc. or a mixture of two or more solvents. The alcohols may include monobase alcohols having 1-4 carbon atoms. It is preferred to use methanol, ethanol, propanol, butanol and methylal in terms of cost effective, which can be used alone or as a mixture of thereof. […]

Row | SMILES | solubility of glyphosate in water [1] | Saturation concentration (w/w) % ([2]; content of methanol 5 (w/w) %, aqueous methanol solution) | Saturation concentration (w/w) % ([2]; content of methanol 20 (w/w) %, aqueous methanol solution) | Saturation concentration (w/w) % ([2]; content of methanol 40 (w/w) %, aqueous methanol solution) | Saturation concentration (w/w) % ([2]; content of methanol 60 (w/w) %, aqueous methanol solution) | Saturation concentration (w/w) % ([2]; content of methanol 80 (w/w) %, aqueous methanol solution) | Saturation concentration (w/w) % ([2]; content of methanol 100 (w/w) %) | concentration of aqueous solution [3]
1 | O=C(O)CNCP(=O)(O)O [glyphosate, N-phosphonomethyl glycine] | 1.2 g per 100 g water |  |  |  |  |  |  | 
2 | N.O=C(O)CNCP(=O)(O)O [ammonium glyphosate] |  | 18.2 (w/w) % | 8.9 (w/w) % | 4.3 (w/w) % | 1.5 (w/w) % | 0.9 (w/w) % | 0.6 (w/w) % | more than 20%
